# Tested on: hyperkalemia in patients on hemodialysis
# Test: Phase 3b randomized, double-blind, placebo-controlled study to reduce incidence of pre-dialysis hyperkalemia with SZC
# Set-up: species or system human
# Conditions: in vivo
# Method: A Phase 3b, Multicenter, Prospective, Randomized, Double Blind, Placebocontrolled Study to Reduce Incidence of Pre-Dialysis Hyperkalemia with Sodium Zirconium Cyclosilicate (SZC) The study was carried out to evaluate the efficacy of Sodium Zirconium Cyclosilicate in the treatment of hyperkalemia in patients on hemodialysis. The study was designed to include approximately 180 patients with ESRD receiving maintenance hemodialysis treatments three times per week with an indication for treatment of hyperkalemia (FIG. 1). The study is a randomized, double-blind study with two treatment groups, SZC or placebo, and includes hemodialysis patients that have been on dialysis for a minimum of three months and receive treatment three times a week. Patients must have hemodialysis access consisting of an arteriovenous fistula, AV graft, or tunneled (permanent) catheter which is expected to remain in place for the entire duration of the study (FIG. 2).
# The starting dose of SZC will be 5 g once daily on non-dialysis day and may be adjusted to a maximum of 15 g per non-dialysis day to maintain a pre-dialysis S-K between 4-5 mmol/L. SZC or placebo will be administered orally on non-dialysis days for a treatment period of eight weeks. Patients will be randomized (1:1) to double-blind treatment with either SZC or placebo, started at 5 g once daily on non-dialysis days, and titrated during a period of four weeks to achieve and maintain a pre-dialysis serum potassium between 4 and 5 mmol/L after the Long Inter-Dialytic Interval (LIDI). Maximum SZC dose is 15 g once daily on non-dialysis days. Treatment will be continued unchanged for an additional four week evaluation period to complete a total of 8 weeks. The primary benefit for patients randomized to SZC is expected to be the maintenance of normokalemia during the long interdialytic interval, potentially including the relief of associated signs and symptoms and an improved quality of life.
# For inclusion in the study patients should fulfil the following criteria: 1. Provision of informed consent prior to any study specific procedures. 2. Female or male aged >18 years at screening Visit 1. For patients aged <20 years and enrolled in Japan, a written informed consent should be obtained from the patient and his or her legally acceptable representative. 3. Receiving hemodialysis (or hemodiafiltration) three times a week for treatment of endstage renal disease (ESRD) for at least three months before randomization. 4. […]
# Patients should not enter the study if any of the following exclusion criteria are fulfilled: 1. […] Hemoglobin <9 g/dL on screening (as assessed on Visit 1). […]
substance,measurement,value
Sodium Zirconium Cyclosilicate [SZC],number of patients with adverse events,40
same,number of patients with serious adverse event,7
same,overall safety,no safety concerns
same,patients with pre-dialysis hypokalemia (serum K<3.5 mmol/L),five
